From patent US20050090524A1, “Novel adamantane derivatives” (priority 2002, published 2005)
pIC50: −log10 of the molar value. Structures can show the parent of a compound that is named as a salt.

Target: T1, P2X7 receptor (Homo sapiens, UniProt Q99572)
T1 construct: 200 μl of a suspension of THP-1 cells; endogenous in cells; host or cells: THP-1 cells
T1 sequence (Q99572 1-595): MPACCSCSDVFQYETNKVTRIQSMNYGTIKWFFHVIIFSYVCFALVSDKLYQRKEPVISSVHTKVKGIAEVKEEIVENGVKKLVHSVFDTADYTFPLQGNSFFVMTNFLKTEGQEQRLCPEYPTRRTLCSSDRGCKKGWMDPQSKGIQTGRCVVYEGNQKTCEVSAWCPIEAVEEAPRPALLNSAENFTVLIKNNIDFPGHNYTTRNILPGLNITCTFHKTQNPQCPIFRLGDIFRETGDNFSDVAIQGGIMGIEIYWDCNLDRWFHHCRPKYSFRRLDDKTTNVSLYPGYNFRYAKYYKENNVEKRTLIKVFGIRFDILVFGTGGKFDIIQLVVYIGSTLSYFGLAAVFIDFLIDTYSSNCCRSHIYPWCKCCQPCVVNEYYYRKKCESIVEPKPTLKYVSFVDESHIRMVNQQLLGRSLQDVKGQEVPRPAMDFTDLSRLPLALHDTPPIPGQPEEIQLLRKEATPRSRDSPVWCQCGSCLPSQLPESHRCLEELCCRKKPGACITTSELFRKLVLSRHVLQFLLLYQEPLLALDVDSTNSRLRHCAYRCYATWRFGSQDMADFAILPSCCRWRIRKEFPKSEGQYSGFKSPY
Experiment: P2X7 receptor antagonist test: bbATP-induced ethidium bromide fluorescence in THP-1 cells
Format: cell-based
Details: bbATP agonist, 37° C. for one hour, negative logarithm of concentration reducing bbATP agonist activity by 50%
Excerpt: Certain compounds such as benzoylbenzoyl adenosine triphosphate (bbATP) are known to be agonists of the P2X7 receptor, effecting the formation of pores in the plasma membrane (Drug Development Research (1996), 37(3), p.126). Consequently, when the receptor is activated using bbATP in the presence of ethidium bromide (a fluorescent DNA probe), an increase in the fluorescence of intracellular DNA-bound ethidium bromide is observed. The increase in fluorescence can be used as a measure of P2X7 receptor activation and therefore to quantify the effect of a compound on the P2X7 receptor.
In this manner, each of the title compounds of the Examples was tested for antagonist activity at the P2X7 receptor. Thus, the test was performed in 96-well flat bottomed microtitre plates, the wells being filled with 250 μl of test solution comprising 200 μl of a suspension of THP-1 cells (2.5×10^6 cells/ml) containing 10^−4M ethidium bromide, 25 μl of a high potassium buffer solution containing 10^−5M bbATP, and 25 μl of the high potassium buffer solution containing 3×10^−5M test compound. The plate was covered with aplastics sheet and incubated at 37° C. for one hour. The plate was then read in a Perkin-Elmer fluorescent plate reader, excitation 520 nm, emission 595 nm, slit widths: Ex 15 nm, Em 20 nm. For the purposes of comparison, bbATP (a P2X7 receptor agonist) and pyridoxal 5-phosphate (a P2X7 receptor antagonist) were used separately in the test as controls. From the readings obtained, a pIC50 figure was calculated for each test compound, this figure being the negative logarithm of the concentration of test compound necessary to reduce the bbATP agonist activity by 50%.

For `Cc1ccc2nc(CCNCCCO)ccc2c1NC(=O)CC12CC3CC(CC(C3)C1)C2` [Example 205, 2-(1-Adamantyl)-N-(2-{2-[(3-hydroxypropyl)amino]ethyl}-6-methylquinolin-5-yl)acetamide Dihydrochloride], the pIC50 was 7.75.

`CNCCCN(C)c1ccc2c(C(=O)NCC34CC5CC(CC(C5)C3)C4)c(Cl)ccc2n1` [Example 208, N-(1-Adamantylmethyl)-6-chloro-2-{methyl[3-(methylamino)propyl]amino}quinoline-5-carboxamide] was tested, and the pIC50 was 7.45.
